US5543425A, “Method of inhibiting platelet aggregation using phenyl amidine thio derivatives” (G. D. Searle & Co., priority 1994, dated 1996)

System: platelet aggregation in dog PRP
Assay: In-Vitro Platelet Aggregation in PRP (collagen-induced)
Assay type: cell-based
Details: Canis lupus familiaris; for inhibition at 10 µM: Test Concentration 1 × 10^-5 (10 μM), dog PRP, collagen 33.3 μg/m final; for IC50: dog platelet-rich plasma, collagen-induced aggregation
Method: Compounds of the invention were evaluated by an in vitro assay to determine compound activity as an inhibitors of platelet aggregation.
In-Vitro Platelet Aggregation in PRP
Healthy male or female dogs were fasted for 8 hours prior to drawing blood; then 30 ml whole blood from jugular vein was collected using a butterfly needle and 30 ml plastic syringe with 3 ml of 0.129 M buffered sodium citrate (3.8%). The syringe was rotated carefully as blood was drawn to mix the citrate. The whole blood was transferred to a 50 ml Corning Conical sterile centrifuge tube. Platelet-rich plasma (PRP) was prepared by centrifugation at 975×g for 3.17 minutes at room temperature, allowing the centrifuge to coast to a stop without braking. The PRP was removed from the blood with a plastic pipette and placed in a plastic capped, 50 ml Corning conical sterile centrifuge tube which was held at room temperature. Platelet poor plasma (PPP) was prepared by centrifuging the remaining blood at 2000×g for 15 minutes at room temperature allowing the centrifuge to coast to a stop without braking. The PRP platelet count was typically a count of 2.5-4×10^8 platelets per ml. 400 μL of the PRP preparation and 50 μL of the compound to be tested or saline were preincubated for 2 minutes at 37° C. in a BioData aggregometer (BioData, Horsham, PA). 50 μL of Collagen (equine tendon, Chronolog, Hayertown, PA) [33.3 μg/m, final concentration] was added to the cuvettes and the aggregation was monitored for 4 minutes. All compounds are tested in duplicate. Inhibition of aggregation for each sample was determined using the formula: % of inhibition=100-% of control and % of control=(Tinh -Tbas)/(Tag -Tbas) ×100, where Tbas is % of light transmission in PRP (baseline), Tagg is % of light transmission in the aggregated PRP sample (saline control) and Tinh is % of light transmission in the sample containing the inhibitor.

Row | Structure (SMILES) | inhibition at 10 µM [%] | IC50 [nM]
1 | COc1ccc(S(=O)(=O)CC(CC(=O)O)NC(=O)CCCCc2ccc(C(=N)N)cc2)cc1 (racemic) [(±)-3-[[5-[4-(aminoiminomethyl)phenyl]-1-oxopentyl]amino]-4-[(4-methoxyphenyl)sulfonyl]butanoic acid] | 100 | 130
2 | N=C(N)c1ccc(CCCCC(=O)NC(CC(=O)O)C[S+]([O-])c2ccccc2)cc1 (racemic) [(±)-3-[[5-[4-(aminoiminomethyl)phenyl]-1-oxopentyl]amino]-4-[(phenylsulfinyl)butanoic acid] | 100 | 200
3 | N=C(N)c1ccc(CCCCC(=O)NC(CC[S+]([O-])Cc2ccccc2)CC(=O)O)cc1 (racemic) [(±)-3-[[5-[4-(aminoiminomethyl)phenyl]-1-oxopentyl]amino]-5-[(phenylmethyl)sulfinyl]pentanoic acid] | 100 | 100
4 | CC(C)OC(=O)CC(CS(=O)(=O)c1ccccn1)NC(=O)CCCCc1ccc(C(=N)N)cc1 (stereo not drawn) [1-methylethyl 3S-[[5-[4-(aminoiminomethyl)phenyl]-1-oxopentyl]amino]-4-(2-pyridinylsulfonyl)butanoate] | 28 | –
5 | CCOC(=O)CC(CS(=O)(=O)c1ccccc1)NC(=O)CCCCc1ccc(C(=N)N)cc1 (racemic) [(±)-ethyl 3-[[5-[4-(aminoiminomethyl)phenyl]-1-oxopentyl]amino]-4-(phenylsulfonyl)butanoate] | 3 | –
6 | CSCCC(CC(=O)O)NC(=O)CCCCc1ccc(C(=N)N)cc1 (racemic) [(±)-3-[[5-[4-(aminoiminomethyl)phenyl]-1-oxopentyl]amino]-5-(methylthio) pentanoic acid] | 100 | 1300
7 | CS(=O)(=O)CCC(CC(=O)O)NC(=O)CCCCc1ccc(C(=N)N)cc1 (racemic) [(±)-3-[[5-[4-(aminoiminomethyl)phenyl]-1-oxopentyl]amino]-5-(methylsulfonyl)pentanoic acid] | 100 | 700
8 | Cc1ccc(S(=O)(=O)CCNC(=O)CCCCc2ccc(C(=N)N)cc2)cc1 [4-(aminoiminomethyl)-N-[2-[(4-methylphenyl)sulfonyl]ethylbenzenepentanamide] | 23 | –
9 | N=C(N)c1ccc(CCCCC(=O)NC(CSc2ccc(F)cc2)CC(=O)O)cc1 (racemic) [(±)-3-[[5-[4-(aminoiminomethyl)phenyl]-1-oxopentyl]amino]-4-[(4-fluorophenyl)thio]butanoic acid] | 100 | 1800
10 | N=C(N)c1ccc(CCCCC(=O)NC(CC(=O)O)CS(=O)(=O)c2ccccn2)cc1 (racemic) [(±)-3-[[5-[4-(aminoiminomethyl)phenyl]-1-oxopentyl]amino]-4-(2-pyridinylsulfonyl)butanoic acid] | 100 | –
11 | Cc1ccc([S+]([O-])CCNC(=O)CCCCc2ccc(C(=N)N)cc2)cc1 (centres unmarked) [4-(aminoiminomethyl)-N-[2-[(4-methylphenyl)sulfinyl]ethylbenzenepentanamide] | 0 | –
12 | C[S+]([O-])CCC(CC(=O)O)NC(=O)CCCCc1ccc(C(=N)N)cc1 (racemic) [(±)-3-[[5-[4-(aminoiminomethyl)phenyl]-1-oxopentyl]amino]-5-(methylsulfinyl) pentanoic acid] | 100 | 1500
13 | N=C(N)c1ccc(CCCCC(=O)NC(CC(=O)O)CS(=O)(=O)c2ccccc2)cc1 (racemic) [(±)-3-[[5-[4-(aminoiminomethyl)phenyl]-1-oxopentyl]amino]-4-(phenylsulfonyl)butanoic acid] | 100 | 28
14 | Cc1ccc(S(=O)(=O)CC(CC(=O)O)NC(=O)CCCCc2ccc(C(=N)N)cc2)cc1 (racemic) [(+)-3-[[5-[4-(aminoiminomethyl)phenyl]-1-oxopentyl]amino]-4-[[(4-methylphenyl)sulfonyl]butanoic acid] | 100 | –
15 | CCOC(=O)CC(CSc1ccccc1)NC(=O)CCCCc1ccc(C(=N)N)cc1 (racemic) [(±)-ethyl 3-[[5-[[4-(aminoiminomethyl)phenyl]-1-oxopentyl]amino]-4-(4-phenylthio) butanoate] | 0 | –
16 | N=C(N)c1ccc(CCCCC(=O)NC(CSc2ccccc2)CC(=O)O)cc1 (racemic) [(±)-3-[[5-[4-(aminoiminomethyl)phenyl]-1-oxopentyl]amino]-4-(phenylthio) butanoic acid] | 100 | 500
17 | CCOC(=O)CC(CC[S+]([O-])Cc1ccccc1)NC(=O)CCCCc1ccc(C(=N)N)cc1 (racemic) [(+)-ethyl 3-[[5-[4-aminoiminomethyl)phenyl]-1-oxopentyl]amino]-5-[(phenylmethyl)sulfinyl]pentanoate] | 100 | 420
18 | N=C(N)c1ccc(CCCCC(=O)NC(CC(=O)O)CS(=O)(=O)c2ccc(F)cc2)cc1 (racemic) [(±)-3-[[5-[4-(aminoiminomethyl)phenyl]-1-oxopentyl]amino]-4-[[(4-fluorophenyl)]sulfonyl]butanoic acid] | 100 | 120
19 | N=C(N)c1ccc(CCCCC(=O)NC(CCS(=O)(=O)Cc2ccccc2)CC(=O)O)cc1 (racemic) [(±)-3-[[5-[4-(aminoiminomethyl)phenyl]-1-oxopentyl]amino]-5[(phenylmethyl)sulfonyl]pentanoic acid] | 100 | 220
20 | CCOC(=O)CC(C[S+]([O-])c1ccccc1)NC(=O)CCCCc1ccc(C(=N)N)cc1 (racemic) [(±)-ethyl 3-[[5-[4-(aminoiminomethyl)phenyl]-1-oxopentyl]amino]-4-(4-phenylsulfinyl)butanoate] | 0 | –
